Source: patent publication US9775335B2, “Durable coating-embedded pesticides with peel and stick mosquito treatment of containers” (University of Florida Research Foundation, Inc., priority 2013, dated 2017)

Experiments:
Assay type in all cases: in vivo
[1] = system: mosquito larvae; test: Mosquito larval mortality with coating-embedded larvicide, 0-week and 20-week aging (FIGS. 17-18)
Description: FIG. 17 is a graph of mosquito larval mortality after 0-week aging with the average live mosquitoes on the vertical axis versus exposure time on the horizontal axis.
FIG. 18 is a graph of mosquito larval mortality after 20-week aging with the average live mosquitoes on the vertical axis versus exposure time on the horizontal axis.
FIG. 17 is a graph of mosquito larval mortality over 0-week aging with amount of mosquitoes on the vertical axis versus exposure time on the horizontal axis.
FIG. 18 is a graph of mosquito larval mortality over 20-week aging on the vertical axis versus exposure time on the horizontal axis.
By embedding the larvicide pyriproxyfen in a coating, the mosquito killing action is protected from degradation for more than 20 weeks.

[2] = system: mosquito larvae; test: Adult mosquito emergence, larvicide embedded in different coatings at different rates (FIG. 23)
Description: Referring to FIG. 23, three different coating were used to embed the larvicide pyriproxyfen at 3 different rates. Coatings were applied to plastic containers that were filled with water, before mosquito larvae were transferred to these containers.
Several different formulae (polycrylic, Polyurethane and Latex paint) have been tested as coatings for the larvicide. All coatings performed well in preventing adult emergence from larvae added to water-holding containers coated internally with the coating-embedded larvicide even with 0.0001% of the active ingredient in the coating. Water treated with 0.01% rate is considered potable by the World Health Organization (WHO).

[3] = system: mosquito larvae; test: Adult mosquito emergence after high volume washing of coated containers (FIG. 24); conditions: embedded in polycrylic and polyurethane coatings; washed with tap water 5×, 20×, 50× container volume, refilled with fresh water
Protocol: Referring to FIG. 24, two of the coating tested previously (refer to FIG. 23) were also tested for durability under high volume washing to see if they could stand under heavy rains. The coatings applied to plastic containers were subject to continuous washing with tap water for total volumes equivalent to 5×, 20×, and 50× the container volumes. After wards the containers were refilled with fresh water and mosquito larvae were added to the water. Adult emergence from the larvae was only observed in containers with coatings that contained no embedded larvicide. […] Coatings prevent larvicide washing off, with up to 50 times the volume of water as contained in the ovitrap. Most larvicides are applied to water and disappear when containers are emptied and re filled either naturally by rain action or by other means. The coating constantly treats new water put in containers with enough larvicide to preserve the mosquito-killing action. Both polycrylic and polyurethane protect the action of pyriproxyfen larvicide when containers coated with these materials are subjected to washing.

SMILES: CC(COc1ccc(Oc2ccccc2)cc1)Oc1ccccn1 (centres unmarked) [pyriproxyfen, Pyriproxyfen]
- time for which the mosquito killing action is protected from degradation ([1]; larvicide embedded in a coating): more than 20 weeks
- mosquito larval mortality / prevention of mosquito emergence ([1]; water in contact with coating-embedded larvicide or larvicide applied directly to container, new material or aged 20 weeks): mosquito larvae start to die as they reach the pupal stage
- adult mosquito emergence ([2]; embedded in three different coatings at 3 rates, applied to plastic containers filled with water): no emergence of mosquitoes even at low pyriproxyfen content
- adult mosquito emergence ([2]; water standard (no coating), 3 rates): mosquito emergence was only inhibited at the high pyriproxyfen level
- adult mosquito emergence after washing [3]: prevented the emergence of adults
